Assay [1] deals with IL-23-stimulated STAT-dependent luciferase reporter in Kit225 T cells. The assay is described as follows: Kit225 T cell assay, IL-23 stimulated STAT-dependent luciferase reporter. The note with it: Kit225 T cells, 20 ng/mL human recombinant IL-23, 5-6 hours, luciferase; read-out: IL23 (Kit225 T Cell Inhibition Data). Type of assay: cell-based, human. The essentials: (§1)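 Stimulus was either 200 U/mL human recombinant IFNα or 20 ng/mL IL-23, applied for 5-6 h to reporter-bearing Kit225 T cells grown in RPMI/10% FBS. Luciferase expression then quantified by luminescent assay.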
(In general: In a reporter assay the amount or activity of a reporter protein is the signal.)

Assay [2] has as its system IFNα-stimulated STAT-dependent luciferase reporter in Kit225 T cells. The experiment in a line: Kit225 T cell assay, IFNα stimulated STAT-dependent luciferase reporter. The conditions noted are these: Kit225 T cells, 200 U/mL human recombinant IFNα, 5-6 hours, luciferase; read-out: IFNα (Kit225 T Cell Inhibition Data). Type of assay: cell-based, human. The essentials: as §1

The source of these data is patent US9315494B2, “Alkyl-amide-substituted pyridyl compounds useful as modulators of IL-12, IL-23 and/or IFNα responses” (Bristol-Myers Squibb Company, priority 2012, dated 2016).

Each structure is given as a SMILES string.

As for `CNC(=O)c1cnc(Nc2ccc(F)cn2)cc1Nc1ccc(C(N)=O)cc1OC` [Example 233], the IC50 in assay [1] is 1370 nM; in assay [2], 870 nM.

With `CNC(=O)c1cnc(Nc2ccc(F)cn2)cc1Nc1ccc(C(N)=O)cc1C` [Example 234], the IC50 in assay [1] is 2800 nM; in assay [2], 1870 nM.

For the compound `CNC(=O)c1cnc(Nc2ccc(F)cn2)cc1Nc1ccc(C(=O)N2CCCCC2)cc1C` [Example 235], the IC50 in assay [1] was 1420 nM; in assay [2], 700 nM.

As to `CNC(=O)c1cnc(Nc2ccc(F)cn2)cc1Nc1ccc(C(=O)N2CCOCC2)cc1C` [Example 236], the IC50 is 2180 nM in assay [1] and 1110 nM in assay [2].

`CNC(=O)c1cnc(Nc2ccc(F)cn2)cc1Nc1ccc(C(=O)N2CCCCC2)cc1OC` [Example 239]: the figures for the IC50 in assay [1] and in assay [2] were 293 nM and 230 nM, respectively.

Regarding `CCN(CC)C(=O)c1ccc(Nc2cc(Nc3ccc(F)cn3)ncc2C(=O)NC)c(OC)c1` [Example 240], the values for the IC50 in assay [1] and in assay [2] were 625 nM and 410 nM, respectively.

As for `CNC(=O)c1cnc(Nc2ccc(F)cn2)cc1Nc1ccc(C(=O)N2CCOCC2)cc1OC` [Example 241], the IC50 in assay [1] is 902 nM; in assay [2], 500 nM.

For the compound `CNC(=O)c1cnc(Nc2ccc(F)cn2)cc1Nc1ccc(C(N)=O)cc1` [Example 242], the IC50 in assay [1] was determined as 1740 nM; in assay [2], 2710 nM.

For the compound `CNC(=O)c1ccc(Nc2cc(Nc3ccc(F)cn3)ncc2C(=O)NC)cc1` [Example 243], the IC50 came to 4610 nM in assay [1] and 2110 nM in assay [2].

Regarding `CNC(=O)c1cnc(Nc2ccc(F)cn2)cc1Nc1ccc(C(=O)N2CCCCC2)cc1` [Example 244], the IC50 in assay [1] came out at 1160 nM; in assay [2] it was 1260 nM.

`CNC(=O)c1cnc(Nc2ccc(F)cn2)cc1Nc1ccc(C(=O)N2CCOCC2)cc1` [Example 245]: the IC50 in assay [1] worked out at 3260 nM; in assay [2], 3660 nM.

As to `CCN(CC)C(=O)c1ccc(Nc2cc(Nc3ccc(F)cn3)ncc2C(=O)NC)cc1` [Example 246], the IC50 stood at 2380 nM in assay [1] and 1650 nM in assay [2].

For the compound `CNC(=O)c1cnc(Nc2ccc(F)cn2)cc1Nc1ccc(C(=O)N2CCC(F)(F)C2)cc1OC` [Example 247], the IC50 in assay [1] is 409 nM; in assay [2], 260 nM.

For the compound `CNC(=O)c1cnc(Nc2ccc(F)cn2)cc1Nc1ccc(C(=O)N2CCCC2)cc1OC` [Example 248], the values for the IC50 in assay [1] and in assay [2] were 504 nM and 250 nM, respectively.

On to `CNC(=O)c1cnc(Nc2ccc(F)cn2)cc1Nc1ccc(C(=O)NCCc2c[nH]cn2)cc1OC` [Example 249], for which the IC50 stood at 10500 nM in assay [1] and 6410 nM in assay [2].

With `CNC(=O)c1cnc(Nc2ccc(F)cn2)cc1Nc1ccc(OC)cc1C(N)=O` [Example 250], the IC50 in assay [1] is 472 nM; in assay [2], 300 nM.

Consider `CNC(=O)c1cnc(Nc2ccc(F)cn2)cc1Nc1ccccc1C(=O)N(C)C` [Example 251], for which the IC50 is 1080 nM in assay [1] and 670 nM in assay [2].

As to `CNC(=O)c1cnc(Nc2ccc(F)cn2)cc1Nc1ccc(OC(F)(F)F)cc1C(N)=O` [Example 252], the figures for the IC50 in assay [1] and in assay [2] were 1290 nM and 430 nM, respectively.

On to `CNC(=O)c1ccnc(Nc2cc(Nc3ccc(Cl)cc3OC)c(C(=O)NC)cn2)c1` [Example 254], for which the IC50 in assay [1] is 488 nM; in assay [2], 310 nM.

Consider `CNC(=O)c1cnc(Nc2ccc(C(N)=O)cn2)cc1Nc1ccc(Cl)cc1OC` [Example 255], for which the IC50 came out at 1560 nM in assay [1] and 710 nM in assay [2].

For `CNC(=O)c1cnc(Nc2cc(C(N)=O)ccn2)cc1Nc1ccc(F)c(F)c1OC` [Example 256], the results for the IC50 in assay [1] and in assay [2] were 568 nM and 700 nM, respectively.

As for `CNC(=O)c1ccnc(Nc2cc(Nc3ccc(F)c(F)c3OC)c(C(=O)NC)cn2)c1` [Example 257], the IC50 in assay [1] worked out at 577 nM; in assay [2], 600 nM.

`CNC(=O)c1cnc(Nc2cc(C(=O)N(C)C)ccn2)cc1Nc1ccc(F)c(F)c1OC` [Example 258]: the IC50 in assay [1] was found to be 646 nM; in assay [2] it was 310 nM.
